Values quoted from earlier work as cited in patent publication US20050049232A1, “Composition” (priority 2001, published 2005).

System: androgenic alopecia patients
Conditions: topical solutions, alone or in combination with skin penetration enhancers such as DMSO

Nc1cc(N2CCCCC2)nc(N)[n+]1[O-] [minoxidil, 2,4-diamino-6-piperidino-pyrimidine-3-oxide]
patients with moderate to dense regrowth of hair: less than 40%
